{
  "source": "patent US9682928B2",
  "about": "(NeuroPro Therapeutics, Inc., priority 2009, dated 2017)",
  "key": {"Male CD-1 mice [1]": {"tested_on": "Male CD-1 mice", "experiment": "Chung (SNL) neuropathic pain study in mice", "format": "in vivo, mouse", "settings": "mice, i.p., SNL", "excerpt": "Male CD-1 mice (25-35 g, Charles River) were used for all studies. Mice were housed in groups of five in Plexiglas chambers with food and water available ad libitum. All animals were maintained on a 12 hr light/dark cycle (lights on at 7:00 AM) in a temperature- and humidity-controlled animal colony. The health status of the animals used in this study was examined on arrival. Only animals in good health were acclimatized to laboratory conditions and used in the study. The acclimation period to the vivarium was a minimum of 7 days. All animal experiments were performed under an approved protocol in accordance with institutional guidelines and in accordance with the Guide for the Care and Use of Laboratory Animals as adopted and promulgated by the National Institutes of Health.\nNTP has provided adequate amounts of NTP-2014 and NTP-2026 along with detailed instructions for preparing injection solutions. Gabapentin (Gallipot, St. Paul, Minn.) was dissolved in physiological saline. Injections were made using a 1-mL syringe with a 30-gauge needle at a volume of 10 ml/kg body weight. Animal body weights were measured prior to surgery and then on the morning of Day 7 (post-SNL testing). For i.p. drug administration, each mouse was firmly grasped by the nape of the neck and the tail was tucked between the last two fingers and palm of the technician's hand. The back of the mouse iwasarched slightly backwards exposing the abdominal region. The needle was inserted through the skin and abdominal musculature into the peritoneal cavity just off of the midline. Mice are immediately returned to the testing cage until behavioral testing.\nNTP2026 (56, 100 and 180 mg/kg, i.p.); NTP 2014 (32, 56 and 100 mg/kg, i.p.); Gabapentin (100 mg/kg, i.p.); Vehicle Control (10% TPGS in benzoate buffer, i.p.).\nSNL surgeries were performed based on the procedures described for rats (Kim and Chung, 1992) and modified for mice (Wang et al., 2001). Anesthesia was maintained with 0.5% halothane in O2 and body temperature was maintained using a heated water blanket. After surgical preparation of the mice, a 1-cm paraspinal incision was made at the level L4-S2. The L5 and L6 spinal nerves were exposed and tightly ligated using a 4-0 silk suture. The ligation was made distal to the dorsal root ganglion but before the fibers joined the sciatic nerve. The incisions were then closed, and animals are allowed to recover. […] Mechanical thresholds were determined by measuring the paw withdrawal threshold to probing with a series of calibrated von Frey filaments as described below.\nNon-noxious sensory thresholds of the mice were determined by paw withdrawal […] to probing with a series of calibrated (0.02-2.34 gm on a logarithmic scale) von Frey filaments (“up and down” method) according to Chaplan et al. (1994) and analyzed using a Dixon (1980) nonparametric test. Results are expressed as the mean withdrawal thresholds. Baseline latencies/thresholds were determined prior to surgery, on the morning of Day 7, and then between 20-60 minutes post dosing with the test drugs. The post-drug time corresponds to the time of maximal activity for these compounds in the tail-flick assay."}, "male Sprague Dawley rats": {"tested_on": "male Sprague Dawley rats", "experiment": "Taxol-induced peripheral neuropathy (rat), mechanical allodynia (von Frey)", "format": "in vivo", "settings": "gabapentin 100 mg/kg", "excerpt": "In this study, an animal model of Taxol-induced sensory neuropathy was employed to evaluate the effects of the sponsor's test compounds, for response to tactile sensitivity using von Frey test of mechanical allodynia. […] Therefore, Taxol-induced mechanical allodynia was employed as the measured behavioral endpoint.\nThe test substance was homogenized and dispersed using a mortar and a pestle in 0.2% hydroxypropylmethylcellulose (HPMC) in physiological saline, which served as the vehicle. Test articles were administered intraperitoneally in dose volumes of 10 mL/kg body weight. Preparations were made freshly for each day of administration.\nPrior to test article NTP-2024 and vehicle control group administration, rats were pretreated at 30 minutes and again at 10 minutes prior to test article administration with a general metabolic inhibitor, piperonyl butoxide (150 mg/kg i.p.) in DMSO, at a volume of 1 mL/kg.\nThe reference article, Gabapentin, was formulated in saline to a concentration of 100 mg/mL and delivered […] at a dose volume of 1 mL/kg body weight (for a dosing concentration of 100 mg/kg).\nAll animals were administered Taxol, 2 mg/kg, IP at a dose volume of 1 mL/kg, on Days 1, 3, 5 and 7.\nOn Day 32, all animals received a single intraperitoneal injection of test article or vehicle according to Tables 1 and 2. For group 1 (vehicle), rats were pre-treated with Piperonyl butoxide (150 mg/kg IP, dose volume of 1 mL/kg) at 30 minutes and again at 10 minutes prior to vehicle administration. Four animals in group 3 (NTP-2024) were also pre-treated with Piperonyl butoxide (150 mg/kg IP, dose volume of 1 mL/kg) at 30 minutes and again at 10 minutes prior to vehicle administration. Animals in Groups 2, 3, 4, & 5 were pre-treated with Saline (dose volume of 1 mL/kg, IP) at 30 minutes and again at 10 minutes prior to test article administration. With the exception of animals in group 2, the animals received an IP injection of vehicle or test article 30 min prior to mechanical allodynia testing. Animals were dosed at a volume of 10 mL/kg.\nAnimals in group 2, received an IP injection of Gabapentin 90 minutes prior to mechanical allodynia testing. Animals were dosed at a volume of 1 mL/kg.\nAll animals underwent von Frey testing for mechanical allodynia. On testing days, the animals were returned to the chambers and allowed approximately 15 minutes to explore their surroundings prior to testing. A series of filaments were applied to the left hind paw. A 2.0 g filament was first applied to the plantar surface, if the animal responded to the filament (by lifting its paw) then the next smaller filament was applied. […] This is repeated in an “Up down” method for four responses after the first initial change in response.\nThe original study design used thermal hyperalgesia as the main parameter for testing the ability of the test compounds to ameliorate the pain associated with the Taxol injection. The treatment inclusion was set at a 20% drop from baseline values as determined on Day 28. […] The study design was amended to use mechanical allodynia as the testing parameter. […] This changed the testing days from Day 28 to Day 31 for allodynia confirmation and Day 29 to Day 32 for testing the article efficacy. Additional animals were received to complete the group size designation. These animals were tested for mechanical allodynia only. The study was then further amended to remove the piperonyl butoxide as a pre-treatment for Group 3 (NTP-2024). […] Because this study was conducted in two portions, four (4) animals from Group 3 received the metabolic inhibitor and five (5) received Saline as a pre-treatment.\nThe group mean results were analyzed versus the vehicle control group using a two way ANOVA, followed by a Bonferroni post-hoc test. Individual groups were tested pre and post dose using a paired t-test."}, "Male CD-1 mice [2]": {"tested_on": "Male CD-1 mice", "experiment": "Chung (SNL) neuropathic pain study in mice", "format": "in vivo, mouse", "settings": "high dose group (180 mg/kg NTP-2014; 100 mg/kg NTP-2026; gabapentin 100 mg/kg, i.p.)"}, "Male Rj: NMRI mice": {"tested_on": "Male Rj: NMRI mice", "experiment": "Formalin paw test (late phase) in the mouse", "format": "in vivo", "procedure": "The method described herein detects analgesic/anti-inflammatory activity, generally used to test compounds for pain relief, in particular diabetic neuropathy or nociceptive neuropathy. See Wheeler-Aceto, et al. (1991) Psychopharmacology 104: 35-44.\nMice were given an intraplantar injection of 5% formalin (25 μl) into the posterior left paw. This treatment induces paw licking in control animals. Mice were briefly observed at 1 minute intervals between 15 and 50 minutes after the injection of formalin and the number of occasions that the mice were observed licking the injected paw was recorded. There were 10 mice per group and the test was performed “blind.”\nThe experiment included 11 groups. Data was analyzed by comparing treated groups with vehicle control using unpaired Mann-Whitney U tests.\nGabapentin (100 mg/kg i.p.) administered under the same experimental conditions, was used as reference substance. The experiment included several groups. Data was analyzed by comparing treated groups with vehicle control using unpaired Mann-Whitney U tests."}},
  "note": "“Also recorded” adds a separate entry of the source.",
  "data": [
    {"smiles": "NCC1(CC(=O)O)CCCCC1", "note": "[Gabapentin, reference compound]", "values": [
      {"measurement": "Reversal of tactile hypersensitivity", "setting": "Male CD-1 mice [1]", "result": "dose-dependent activity"},
      {"measurement": "Reversal of mechanical allodynia", "setting": "male Sprague Dawley rats", "result": "able to mitigate the mechanical allodynia; also recorded: significantly reverse"},
      {"measurement": "Sedation", "setting": "Male CD-1 mice [2]", "result": "minor sedation and incoordination"},
      {"measurement": "Licking Score % Pain Decrease", "setting": "Male Rj: NMRI mice; gabapentin 100 mg/kg (584 μmol/kg)", "result": 63, "unit": "%"},
      {"measurement": "Licking Score (15 to 50 minutes post-formalin injection) % Change from Control", "setting": "Male Rj: NMRI mice; gabapentin 100 mg/kg i.p. (584 μmol/kg)", "result": "−63", "unit": "%"}
    ]}
  ]
}
